Measurements: the kinase profiling compilation of Christmann-Franck et al. (2016)

How the values were obtained:
[1] = target: CDK2 CCNA2 (human) (UniProt P20248+P24941)
[2] = target: MAP2K1 (human) (UniProt Q02750)
[3] = target: PAK4 (human) (UniProt O96013)
[4] = tested on: PRKAA1 or PRKAA2 (rat); settings: accession and sequence are those of the human protein
[5] = target: SRPK1 (human) (UniProt Q96SB4)
[6] = target: EPHA2 (human) (UniProt P29317)
[7] = target: PKN2 (human) (UniProt Q16513)
[8] = target: DYRK1A (human) (UniProt Q13627)
[9] = target: IGF1R (human) (UniProt P08069)
Sequence of IGF1R (human) (P08069 whole entry, looked up): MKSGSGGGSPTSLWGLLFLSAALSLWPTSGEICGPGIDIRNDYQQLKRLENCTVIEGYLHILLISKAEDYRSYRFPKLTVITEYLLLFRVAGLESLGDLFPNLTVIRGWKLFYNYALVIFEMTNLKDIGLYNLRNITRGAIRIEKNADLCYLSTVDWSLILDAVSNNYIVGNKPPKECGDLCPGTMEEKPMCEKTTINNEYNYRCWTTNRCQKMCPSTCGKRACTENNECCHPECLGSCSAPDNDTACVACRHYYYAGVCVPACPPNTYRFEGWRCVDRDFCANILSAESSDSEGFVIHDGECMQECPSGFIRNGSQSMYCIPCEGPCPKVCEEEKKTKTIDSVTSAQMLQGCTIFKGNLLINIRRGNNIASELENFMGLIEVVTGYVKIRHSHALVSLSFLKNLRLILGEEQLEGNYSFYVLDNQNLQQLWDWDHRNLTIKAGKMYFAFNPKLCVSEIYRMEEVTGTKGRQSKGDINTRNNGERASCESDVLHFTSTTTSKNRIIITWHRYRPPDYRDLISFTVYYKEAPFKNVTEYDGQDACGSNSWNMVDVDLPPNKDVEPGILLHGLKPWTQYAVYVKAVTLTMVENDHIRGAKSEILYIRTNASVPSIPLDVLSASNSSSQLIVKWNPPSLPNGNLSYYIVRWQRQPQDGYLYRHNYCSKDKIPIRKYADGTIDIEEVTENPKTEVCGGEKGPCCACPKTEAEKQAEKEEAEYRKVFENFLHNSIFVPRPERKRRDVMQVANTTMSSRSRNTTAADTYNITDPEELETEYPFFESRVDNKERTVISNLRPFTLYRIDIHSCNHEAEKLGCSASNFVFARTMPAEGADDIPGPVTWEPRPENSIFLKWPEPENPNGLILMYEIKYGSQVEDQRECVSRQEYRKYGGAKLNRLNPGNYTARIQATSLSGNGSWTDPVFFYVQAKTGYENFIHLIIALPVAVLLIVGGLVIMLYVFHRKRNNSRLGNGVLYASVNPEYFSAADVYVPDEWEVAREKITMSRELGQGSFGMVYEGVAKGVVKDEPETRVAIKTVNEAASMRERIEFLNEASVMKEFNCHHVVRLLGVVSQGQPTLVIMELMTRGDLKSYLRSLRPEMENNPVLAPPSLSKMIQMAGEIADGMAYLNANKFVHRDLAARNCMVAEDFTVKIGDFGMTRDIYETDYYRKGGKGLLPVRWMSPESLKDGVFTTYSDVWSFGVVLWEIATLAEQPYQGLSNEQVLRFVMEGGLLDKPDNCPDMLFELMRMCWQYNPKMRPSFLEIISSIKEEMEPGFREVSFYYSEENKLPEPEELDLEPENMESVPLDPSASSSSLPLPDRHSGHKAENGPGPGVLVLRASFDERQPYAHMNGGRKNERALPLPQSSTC

[10] = target: MAPKAPK2 (human) (UniProt P49137)
[11] = target: PAK7 (human) (UniProt Q9P286)
[12] = target: PIM3 (human) (UniProt Q86V86)
[13] = target: CaMK1 (human) (UniProt Q14012)
[14] = target: MKNK2 (human) (UniProt Q9HBH9)
[15] = target: MAPK12 (human) (UniProt P53778)
[16] = target: FGFR1 (human) (UniProt P11362)
[17] = target: MAPK1 (human) (UniProt P28482)
[18] = target: MAPK11 (human) (UniProt Q15759)
[19] = target: MAPK9 (human) (UniProt P45984)
[20] = target: NEK6 (human) (UniProt Q9HC98)
Sequence of NEK6 (human) (Q9HC98 whole entry, looked up): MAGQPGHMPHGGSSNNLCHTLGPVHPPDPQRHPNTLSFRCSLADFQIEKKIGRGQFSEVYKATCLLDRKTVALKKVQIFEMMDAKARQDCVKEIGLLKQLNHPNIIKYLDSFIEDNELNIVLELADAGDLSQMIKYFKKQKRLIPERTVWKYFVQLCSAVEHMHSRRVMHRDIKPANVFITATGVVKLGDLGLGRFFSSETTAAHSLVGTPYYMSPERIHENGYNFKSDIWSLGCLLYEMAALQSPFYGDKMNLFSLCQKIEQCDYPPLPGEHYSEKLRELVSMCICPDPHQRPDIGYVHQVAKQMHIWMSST

[21] = target: CAMKK2 (human) (UniProt Q96RR4)
[22] = target: MELK (human) (UniProt Q14680)
[23] = target: PIM2 (human) (UniProt Q9P1W9)
[24] = target: PRKACA (human) (UniProt P17612)
[25] = tested on: ROCK2 (rat); settings: accession and sequence are those of the human protein
[26] = target: RPS6KA5 KD1 KD2 (human) (UniProt O75582)
Sequence of RPS6KA5 KD1 KD2 (human) (O75582 whole entry, looked up): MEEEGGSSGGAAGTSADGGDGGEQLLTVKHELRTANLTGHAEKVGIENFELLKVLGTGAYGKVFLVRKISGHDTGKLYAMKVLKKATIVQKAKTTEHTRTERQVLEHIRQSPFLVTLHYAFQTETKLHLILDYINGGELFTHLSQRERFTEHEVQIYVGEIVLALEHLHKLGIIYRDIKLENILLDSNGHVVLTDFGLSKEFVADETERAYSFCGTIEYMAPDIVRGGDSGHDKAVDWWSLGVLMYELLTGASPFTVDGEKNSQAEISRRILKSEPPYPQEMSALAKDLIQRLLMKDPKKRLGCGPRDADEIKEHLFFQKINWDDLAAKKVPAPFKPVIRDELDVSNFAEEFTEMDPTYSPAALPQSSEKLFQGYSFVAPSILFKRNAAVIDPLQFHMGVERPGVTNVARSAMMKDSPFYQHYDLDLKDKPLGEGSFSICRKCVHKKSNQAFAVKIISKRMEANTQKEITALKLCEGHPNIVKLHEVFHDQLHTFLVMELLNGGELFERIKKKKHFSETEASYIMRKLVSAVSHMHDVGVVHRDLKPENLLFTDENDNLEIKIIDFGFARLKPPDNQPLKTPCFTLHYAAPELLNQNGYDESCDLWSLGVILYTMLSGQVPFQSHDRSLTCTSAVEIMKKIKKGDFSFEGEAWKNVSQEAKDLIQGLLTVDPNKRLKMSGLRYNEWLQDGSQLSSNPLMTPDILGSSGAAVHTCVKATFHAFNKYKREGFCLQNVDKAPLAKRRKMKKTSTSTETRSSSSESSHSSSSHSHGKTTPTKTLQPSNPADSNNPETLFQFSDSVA

[27] = target: HIPK2 (human) (UniProt Q9H2X6)
Sequence of HIPK2 (human) (Q9H2X6 whole entry, looked up): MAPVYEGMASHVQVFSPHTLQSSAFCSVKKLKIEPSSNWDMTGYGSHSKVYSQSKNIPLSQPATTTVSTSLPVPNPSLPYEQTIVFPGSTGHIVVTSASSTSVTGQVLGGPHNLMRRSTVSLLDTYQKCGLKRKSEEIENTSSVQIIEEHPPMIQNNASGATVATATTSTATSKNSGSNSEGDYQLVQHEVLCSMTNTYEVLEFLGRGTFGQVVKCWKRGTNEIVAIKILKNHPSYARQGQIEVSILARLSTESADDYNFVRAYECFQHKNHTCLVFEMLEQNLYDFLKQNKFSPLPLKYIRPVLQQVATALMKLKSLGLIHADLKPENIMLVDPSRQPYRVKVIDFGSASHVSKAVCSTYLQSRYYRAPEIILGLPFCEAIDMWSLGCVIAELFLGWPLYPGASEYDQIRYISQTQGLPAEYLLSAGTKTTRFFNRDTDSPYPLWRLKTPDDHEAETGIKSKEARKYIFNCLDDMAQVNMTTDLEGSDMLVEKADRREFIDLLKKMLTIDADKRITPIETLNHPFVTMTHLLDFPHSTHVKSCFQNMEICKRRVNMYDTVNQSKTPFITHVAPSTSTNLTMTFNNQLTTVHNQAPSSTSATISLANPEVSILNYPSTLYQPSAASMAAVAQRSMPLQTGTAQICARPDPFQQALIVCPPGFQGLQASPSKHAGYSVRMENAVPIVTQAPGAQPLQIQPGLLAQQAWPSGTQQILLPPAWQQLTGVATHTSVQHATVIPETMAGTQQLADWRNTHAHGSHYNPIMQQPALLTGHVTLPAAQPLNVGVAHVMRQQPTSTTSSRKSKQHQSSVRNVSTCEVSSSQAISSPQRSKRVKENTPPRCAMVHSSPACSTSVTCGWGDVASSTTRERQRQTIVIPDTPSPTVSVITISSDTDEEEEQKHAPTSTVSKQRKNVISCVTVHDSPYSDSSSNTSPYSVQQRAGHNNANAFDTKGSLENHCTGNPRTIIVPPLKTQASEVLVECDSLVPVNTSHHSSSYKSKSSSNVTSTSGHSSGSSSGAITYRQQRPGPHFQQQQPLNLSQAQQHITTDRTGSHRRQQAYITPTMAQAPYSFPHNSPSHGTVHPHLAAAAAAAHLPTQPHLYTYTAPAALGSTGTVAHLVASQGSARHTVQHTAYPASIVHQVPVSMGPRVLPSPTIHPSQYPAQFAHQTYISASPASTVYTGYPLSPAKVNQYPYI

[28] = target: EPHB3 (human) (UniProt P54753)
[29] = target: MKNK1 (human) (UniProt Q9BUB5)
[30] = target: CSK (human) (UniProt P41240)
[31] = target: PHKG1 (human) (UniProt Q16816)
[32] = target: MAPK13 (human) (UniProt O15264)
[33] = target: CHEK1 (human) (UniProt O14757)
[34] = target: STK3 (human) (UniProt Q13188)

Sequence of EPHA2 (human) (P29317 whole entry, looked up): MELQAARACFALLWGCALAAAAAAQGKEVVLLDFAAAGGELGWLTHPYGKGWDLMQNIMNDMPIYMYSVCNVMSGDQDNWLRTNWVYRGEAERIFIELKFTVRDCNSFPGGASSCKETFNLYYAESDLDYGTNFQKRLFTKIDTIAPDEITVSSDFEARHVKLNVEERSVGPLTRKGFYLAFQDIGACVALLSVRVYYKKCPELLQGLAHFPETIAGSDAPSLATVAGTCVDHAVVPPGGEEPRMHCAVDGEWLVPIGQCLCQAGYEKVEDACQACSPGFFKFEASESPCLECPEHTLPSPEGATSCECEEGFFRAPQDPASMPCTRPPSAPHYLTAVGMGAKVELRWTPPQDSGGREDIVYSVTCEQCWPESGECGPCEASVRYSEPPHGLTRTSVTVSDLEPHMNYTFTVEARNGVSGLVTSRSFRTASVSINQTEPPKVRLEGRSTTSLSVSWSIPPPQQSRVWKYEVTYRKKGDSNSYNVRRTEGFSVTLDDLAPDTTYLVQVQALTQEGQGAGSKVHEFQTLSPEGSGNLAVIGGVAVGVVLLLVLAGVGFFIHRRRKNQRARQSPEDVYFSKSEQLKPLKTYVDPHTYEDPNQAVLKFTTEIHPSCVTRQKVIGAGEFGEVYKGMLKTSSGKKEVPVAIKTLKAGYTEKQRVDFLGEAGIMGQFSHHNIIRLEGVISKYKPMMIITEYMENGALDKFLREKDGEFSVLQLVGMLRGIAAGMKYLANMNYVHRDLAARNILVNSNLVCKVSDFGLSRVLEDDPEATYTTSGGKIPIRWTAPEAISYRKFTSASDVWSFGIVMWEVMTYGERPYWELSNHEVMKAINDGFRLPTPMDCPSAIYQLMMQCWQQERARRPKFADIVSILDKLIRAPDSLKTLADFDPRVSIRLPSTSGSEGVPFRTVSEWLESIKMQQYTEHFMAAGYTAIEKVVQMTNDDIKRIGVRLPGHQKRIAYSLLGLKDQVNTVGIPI
Sequence of MAP2K1 (human) (Q02750 whole entry, looked up): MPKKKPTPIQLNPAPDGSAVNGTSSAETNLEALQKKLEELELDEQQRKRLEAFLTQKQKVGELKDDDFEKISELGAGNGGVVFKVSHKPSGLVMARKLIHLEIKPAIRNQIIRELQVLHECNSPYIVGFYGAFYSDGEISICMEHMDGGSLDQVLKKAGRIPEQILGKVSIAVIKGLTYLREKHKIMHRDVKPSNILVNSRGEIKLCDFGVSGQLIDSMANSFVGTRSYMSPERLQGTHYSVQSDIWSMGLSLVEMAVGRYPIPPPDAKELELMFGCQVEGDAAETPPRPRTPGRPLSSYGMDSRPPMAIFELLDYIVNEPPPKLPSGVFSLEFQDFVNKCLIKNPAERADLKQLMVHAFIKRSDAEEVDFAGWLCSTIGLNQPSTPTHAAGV

CC(C)n1nc(-c2cc3cc(O)ccc3[nH]2)c2c(N)ncnc21
per cent of control ([1]; compound 1.0 µM): 78%
per cent of control ([1]; compound 10.0 µM): 40%
per cent of control ([2]; compound 1.0 µM): 25%
per cent of control ([2]; compound 10.0 µM): 10%
per cent of control ([3]; compound 1.0 µM): 88%
per cent of control ([3]; compound 10.0 µM): 28%
per cent of control ([4]; compound 1.0 µM): 70%
per cent of control ([4]; compound 10.0 µM): 28%
per cent of control ([5]; compound 1.0 µM): 86%
per cent of control ([5]; compound 10.0 µM): 63%
per cent of control ([6]; compound 1.0 µM): 12%
per cent of control ([6]; compound 10.0 µM): 3%
per cent of control ([7]; compound 1.0 µM): 68%
per cent of control ([7]; compound 10.0 µM): 22%
per cent of control ([8]; compound 1.0 µM): 84%
per cent of control ([8]; compound 10.0 µM): 55%
per cent of control ([9]; compound 1.0 µM): 103%
per cent of control ([9]; compound 10.0 µM): 89%
per cent of control ([10]; compound 1.0 µM): 96%
per cent of control ([10]; compound 10.0 µM): 94%
per cent of control ([11]; compound 1.0 µM): 69%
per cent of control ([11]; compound 10.0 µM): 34%
per cent of control ([12]; compound 1.0 µM): 59%
per cent of control ([12]; compound 10.0 µM): 13%
per cent of control ([13]; compound 1.0 µM): 80%
per cent of control ([13]; compound 10.0 µM): 33%
per cent of control ([14]; compound 1.0 µM): 86%
per cent of control ([14]; compound 10.0 µM): 42%
per cent of control ([15]; compound 1.0 µM): 96%
per cent of control ([15]; compound 10.0 µM): 72%
per cent of control ([16]; compound 1.0 µM): 14%
per cent of control ([16]; compound 10.0 µM): 2%
per cent of control ([17]; compound 1.0 µM): 106%
per cent of control ([17]; compound 10.0 µM): 88%
per cent of control ([18]; compound 1.0 µM): 91%
per cent of control ([18]; compound 10.0 µM): 77%
per cent of control ([19]; compound 1.0 µM): 103%
per cent of control ([20]; compound 1.0 µM): 99%
per cent of control ([20]; compound 10.0 µM): 96%
per cent of control ([21]; compound 1.0 µM): 72%
per cent of control ([21]; compound 10.0 µM): 30%
per cent of control ([22]; compound 1.0 µM): 26%
per cent of control ([22]; compound 10.0 µM): 13%
per cent of control ([23]; compound 1.0 µM): 110%
per cent of control ([23]; compound 10.0 µM): 36%
per cent of control ([24]; compound 1.0 µM): 94%
per cent of control ([24]; compound 10.0 µM): 45%
per cent of control ([25]; compound 1.0 µM): 105%
per cent of control ([25]; compound 10.0 µM): 77%
per cent of control ([26]; compound 1.0 µM): 105%
per cent of control ([26]; compound 10.0 µM): 49%
per cent of control ([27]; compound 1.0 µM): 26%
per cent of control ([27]; compound 10.0 µM): 7%
per cent of control ([28]; compound 1.0 µM): 18%
per cent of control ([28]; compound 10.0 µM): 5%
per cent of control ([29]; compound 1.0 µM): 51%
per cent of control ([29]; compound 10.0 µM): 12%
per cent of control ([30]; compound 1.0 µM): 52%
per cent of control ([30]; compound 10.0 µM): 34%
per cent of control ([31]; compound 1.0 µM): 72%
per cent of control ([31]; compound 10.0 µM): 25%
per cent of control ([32]; compound 1.0 µM): 97%
per cent of control ([32]; compound 10.0 µM): 73%
per cent of control ([33]; compound 1.0 µM): 91%
per cent of control ([33]; compound 10.0 µM): 34%

CCC(=O)N1CCN(c2ccc(-n3c(=O)ccc4cnc5ccc(-c6cnc7ccccc7c6)cc5c43)cc2C(F)(F)F)CC1
per cent of control ([1]; compound 1.0 µM): 108%
per cent of control ([1]; compound 10.0 µM): 77%
per cent of control ([2]; compound 1.0 µM): 69%
per cent of control ([2]; compound 10.0 µM): 22%
per cent of control ([3]; compound 1.0 µM): 110%
per cent of control ([3]; compound 10.0 µM): 66%
per cent of control ([4]; compound 1.0 µM): 78%
per cent of control ([4]; compound 10.0 µM): 93%
per cent of control ([34]; compound 1.0 µM): 97%
per cent of control ([34]; compound 10.0 µM): 79%
per cent of control ([5]; compound 1.0 µM): 107%
per cent of control ([5]; compound 10.0 µM): 110%
per cent of control ([6]; compound 1.0 µM): 120%
per cent of control ([6]; compound 10.0 µM): 87%
per cent of control ([7]; compound 1.0 µM): 97%
per cent of control ([7]; compound 10.0 µM): 114%
per cent of control ([8]; compound 1.0 µM): 92%
per cent of control ([8]; compound 10.0 µM): 75%
per cent of control ([9]; compound 1.0 µM): 100%
per cent of control ([9]; compound 10.0 µM): 93%
per cent of control ([10]; compound 1.0 µM): 102%
per cent of control ([10]; compound 10.0 µM): 108%
per cent of control ([11]; compound 10.0 µM): 61%
per cent of control ([12]; compound 1.0 µM): 85%
per cent of control ([12]; compound 10.0 µM): 30%
per cent of control ([13]; compound 1.0 µM): 104%
per cent of control ([13]; compound 10.0 µM): 77%
per cent of control ([14]; compound 1.0 µM): 112%
per cent of control ([14]; compound 10.0 µM): 96%
per cent of control ([15]; compound 1.0 µM): 103%
per cent of control ([15]; compound 10.0 µM): 129%
per cent of control ([16]; compound 1.0 µM): 110%
per cent of control ([16]; compound 10.0 µM): 79%
per cent of control ([17]; compound 1.0 µM): 102%
per cent of control ([17]; compound 10.0 µM): 90%
per cent of control ([18]; compound 1.0 µM): 83%
per cent of control ([18]; compound 10.0 µM): 78%
per cent of control ([19]; compound 1.0 µM): 98%
per cent of control ([20]; compound 1.0 µM): 100%
per cent of control ([21]; compound 1.0 µM): 95%
per cent of control ([21]; compound 10.0 µM): 81%
per cent of control ([22]; compound 1.0 µM): 63%
per cent of control ([22]; compound 10.0 µM): 17%
per cent of control ([23]; compound 1.0 µM): 86%
per cent of control ([23]; compound 10.0 µM): 96%
per cent of control ([24]; compound 1.0 µM): 106%
per cent of control ([24]; compound 10.0 µM): 96%
per cent of control ([25]; compound 1.0 µM): 96%
per cent of control ([25]; compound 10.0 µM): 101%
per cent of control ([26]; compound 1.0 µM): 86%
per cent of control ([27]; compound 1.0 µM): 96%
per cent of control ([27]; compound 10.0 µM): 88%
per cent of control ([28]; compound 1.0 µM): 115%
per cent of control ([28]; compound 10.0 µM): 94%
per cent of control ([29]; compound 1.0 µM): 93%
per cent of control ([29]; compound 10.0 µM): 96%
per cent of control ([30]; compound 1.0 µM): 101%
per cent of control ([30]; compound 10.0 µM): 83%
per cent of control ([31]; compound 1.0 µM): 110%
per cent of control ([31]; compound 10.0 µM): 99%
per cent of control ([32]; compound 1.0 µM): 106%
per cent of control ([32]; compound 10.0 µM): 97%
per cent of control ([33]; compound 1.0 µM): 106%
per cent of control ([33]; compound 10.0 µM): 125%

COC(=O)Nc1ccc(-c2nc(N3CCOCC3)c3cnn(C4CCN(C(=O)OC)CC4)c3n2)cc1
per cent of control ([1]; compound 1.0 µM): 111%
per cent of control ([1]; compound 10.0 µM): 104%
per cent of control ([2]; compound 1.0 µM): 82%
per cent of control ([2]; compound 10.0 µM): 79%
per cent of control ([3]; compound 1.0 µM): 93%
per cent of control ([3]; compound 10.0 µM): 97%
per cent of control ([4]; compound 1.0 µM): 78%
per cent of control ([4]; compound 10.0 µM): 82%
per cent of control ([34]; compound 1.0 µM): 85%
per cent of control ([34]; compound 10.0 µM): 96%
per cent of control ([5]; compound 1.0 µM): 109%
per cent of control ([5]; compound 10.0 µM): 102%
per cent of control ([6]; compound 1.0 µM): 106%
per cent of control ([6]; compound 10.0 µM): 104%
per cent of control ([7]; compound 1.0 µM): 117%
per cent of control ([7]; compound 10.0 µM): 101%
per cent of control ([8]; compound 1.0 µM): 111%
per cent of control ([8]; compound 10.0 µM): 90%
per cent of control ([9]; compound 1.0 µM): 108%
per cent of control ([9]; compound 10.0 µM): 101%
per cent of control ([10]; compound 1.0 µM): 98%
per cent of control ([10]; compound 10.0 µM): 91%
per cent of control ([11]; compound 1.0 µM): 97%
per cent of control ([11]; compound 10.0 µM): 87%
per cent of control ([12]; compound 1.0 µM): 87%
per cent of control ([12]; compound 10.0 µM): 80%
per cent of control ([13]; compound 1.0 µM): 97%
per cent of control ([13]; compound 10.0 µM): 102%
per cent of control ([14]; compound 1.0 µM): 115%
per cent of control ([14]; compound 10.0 µM): 93%
per cent of control ([15]; compound 1.0 µM): 55%
per cent of control ([15]; compound 10.0 µM): 17%
per cent of control ([16]; compound 1.0 µM): 95%
per cent of control ([16]; compound 10.0 µM): 109%
per cent of control ([17]; compound 1.0 µM): 109%
per cent of control ([17]; compound 10.0 µM): 108%
per cent of control ([18]; compound 1.0 µM): 82%
per cent of control ([18]; compound 10.0 µM): 81%
per cent of control ([19]; compound 1.0 µM): 92%
per cent of control ([19]; compound 10.0 µM): 89%
per cent of control ([20]; compound 1.0 µM): 96%
per cent of control ([20]; compound 10.0 µM): 87%
per cent of control ([21]; compound 1.0 µM): 102%
per cent of control ([21]; compound 10.0 µM): 95%
per cent of control ([22]; compound 1.0 µM): 87%
per cent of control ([22]; compound 10.0 µM): 75%
per cent of control ([23]; compound 1.0 µM): 81%
per cent of control ([23]; compound 10.0 µM): 80%
per cent of control ([24]; compound 1.0 µM): 103%
per cent of control ([24]; compound 10.0 µM): 100%
per cent of control ([25]; compound 1.0 µM): 92%
per cent of control ([25]; compound 10.0 µM): 97%
per cent of control ([26]; compound 1.0 µM): 83%
per cent of control ([26]; compound 10.0 µM): 86%
per cent of control ([27]; compound 1.0 µM): 95%
per cent of control ([27]; compound 10.0 µM): 94%
per cent of control ([28]; compound 1.0 µM): 100%
per cent of control ([28]; compound 10.0 µM): 116%
per cent of control ([29]; compound 1.0 µM): 96%
per cent of control ([29]; compound 10.0 µM): 92%
per cent of control ([30]; compound 1.0 µM): 113%
per cent of control ([30]; compound 10.0 µM): 106%
per cent of control ([31]; compound 1.0 µM): 108%
per cent of control ([31]; compound 10.0 µM): 93%
per cent of control ([32]; compound 1.0 µM): 14%
per cent of control ([32]; compound 10.0 µM): 10%
per cent of control ([33]; compound 1.0 µM): 96%
per cent of control ([33]; compound 10.0 µM): 92%
